The values below come from patent US20110201869A1, “METHOD AND APPARATUS FOR ENHANCED TRANSDERMAL DIFFUSION” (OBJ LIMITED, priority 2008, published 2011).

The nature of data set [1]: in vitro Franz Cell diffusion study through excised epidermis. In kind it is in vitro ADME, piglet. The method, then: FIG. 4 is a plot of the substance Tetracaine through excised piglet ear epidermis in an in vitro Franz Cell diffusion study. Epidermal membranes were obtained by heat separation (60 sec at 60° C., Kligman and Christophers 1963). Skin integrity was determined by conductance measurement before the experiment. Skin sections from each ear were matched over the groups per experiment. Epidermal membranes were placed between the donor and receptor compartments of Franz-type diffusion cells with the stratum corneum facing the donor chamber. The epidermal membranes were equilibrated with the receptor solution (USP PBS, pH 7.4) for 30 min. The receptor compartment of the cell was immersed in a water bath at 37±0.5° C., and stirred every 5 min throughout the experiment. After equilibration, the donor solution consisting of 1 mL of 2 (FIG. 4a) or 4% Tetracaine HCL (FIG. 4B; Sigma) in PBS was added, and the present invention was suspended 3 mm above the surface of the donor fluid (i.e. 8 mm above the epidermal surface). The passive diffusion cells received the same donor drug concentration and were covered with parafilm only, i.e. no material of the present invention was applied. The administration period was 0-1 hr. Samples of the receptor solution were removed and replaced with fresh buffer over a 60 minute period. All samples were analysed for Tetracaine hydrochloride content by spectrophotometric detection (absorbance at 229 nm). The cumulative amount of Tetracaine hydrochloride in the receptor compartment versus time was plotted for both experiments. After the diffusion experiment the skin, still fixed in the diffusion chamber, was stained with standard HE dye. The diffusion area was investigated under a microscope for the occurrence of damage to the skin. Data derived from epidermis with low skin integrity was excluded from analysis and graphical depiction.
FIG. 5 is a plot of the substance Sumatriptan through excised piglet ear epidermis in an in vitro Franz Cell diffusion study. […] All samples were analysed for Sumatriptan content by spectrophotometric detection (absorbance at 285 nm). […]

Data set [2] is described as follows: Methyl Nicotinate Laser-Doppler vasodilation model (transdermal delivery in vivo). Details: species or system human. The text has this:
FIG. 7 depicts the enhancing effects of the present invention on the delivery of Methyl Nicotinate through human skin in vivo. The Methyl Nicotinate Laser-Doppler vasodilation model was used (see Hollaway et al, J. Invest Dermatol 69:306-309, 1977; Wester et al., J. Invest Dermatol 83:515-517, 1984). […] In short, successful transdermal delivery of the rubifacient Methyl Nicotinate through the skin results in pronounced vasodilation, increased perfusion and erythema. […] The Methyl Nicotinate induced vasodilation can be measured using a non-invasive Laser Doppler Flow or Perfusion meter with data being provided as a numeric value equitable to local in vivo blood perfusion. The present experiment involved the saturation of 4 cm^2 tissue paper units with Methyl Nicotinate (5 mmolar in PBS). The Methyl Nicotinate tissues were applied to the skin of the volar forearm. The present invention (4 cm^2) and the passive surrogate units were placed over the Methyl Nicotinate soaked paper units. For 5 minutes one active and one passive unit were applied adjacently onto the skin of the forearm. Subsequently, all materials were removed from the skin and the skin was patted dry. Laser Doppler perfusion probes (Moor Instruments Laser Doppler Perfusion Meter) were placed over both areas and blood perfusion rates were monitored for a 30 minute period. […]

As to `CCCCNc1ccc(C(=O)OCCN(C)C)cc1` [Tetracaine], the “diffusion through excised epidermis under the influence of the present invention compared to passive diffusion” value in data set [1] (2% Tetracaine HCL in PBS donor, 0-1 hr, magnetic device suspended 8 mm above epidermal surface, FIG. 4A) is reported as “enhanced diffusion”; in data set [1] (4% Tetracaine HCL in PBS donor, 0-1 hr, magnetic device suspended 8 mm above epidermal surface, FIG. 4B), “enhanced diffusion”. Consider `CNS(=O)(=O)Cc1ccc2[nH]cc(CCN(C)C)c2c1` [Sumatriptan], for which the “diffusion through excised epidermis under the influence of the present invention compared to passive diffusion” value in data set [1] (Sumatriptan succinate 2 mg/ml donor, 0-30 min, FIG. 5) is given as “enhanced diffusion”. Regarding `COC(=O)c1cccnc1` [Methyl Nicotinate], the “delivery through human skin in vivo with the present invention compared with passive diffusion (blood perfusion by Laser Doppler)” value in data set [2] (5 mmolar in PBS, 5 minutes application on volar forearm, perfusion monitored 30 minutes, FIG. 7) was “effective at enhanced delivery”. Also, in data set [2] (2 milli-molar, human forearm skin in vivo, FIG. 8), the “diffusion with 480 gauss / 300 poles per meter versus 120 gauss / 500 poles per meter device” value is reported as “similar”.
